From paper PMC4632126, “High specific selectivity and Membrane-Active Mechanism of the synthetic centrosymmetric α-helical peptides with Gly-Gly pairs” (Scientific Reports, 2015)
Where no end group is shown, it is not given here.

Tests used:
E. coli ATCC 25922 [1] = assay type: cell-based, Escherichia coli; settings: ATCC 25922, 5 h
Procedure: (§1) Minimal bactericidal concentrations (MBCs) were measured using the method which has been adopted from National Committee for Clinical Laboratory Standards (NCCLS), with modifications. In short, 50 μL peptide solutions were pipetted into microtiter plates at various concentrations ranging from 1 to 128 μM. Freshly grown bacteria were added to the each well in a density of 0.5–1 × 10^6 CFUmL^−1. Microtiter plated was incubated at 37 °C for 5 h. Fifty microliters of each incubation mixture was further serially diluted (up to 10^−3 of the initial bacterial concentration), transferred on agar plates and incubated overnight. On the following day, the number of colonies was evaluated and the initial CFU/well retrospectively calculated. The minimum bactericidal concentrations (μM) were determined as the lowest concentration of the peptides that prevented more than 99.9% bacteria growth.

E. coli UB1005 = assay type: cell-based, Escherichia coli; settings: UB1005, 5 h
Procedure: as §1

S. typhimurium ATCC14028 = assay type: cell-based, Salmonella typhimurium; settings: ATCC14028, 5 h
Procedure: as §1

S. aureus ATCC29213 = assay type: cell-based, Staphylococcus aureus; settings: ATCC 29213, 5 h
Procedure: as §1

[2] = tested on: Methicillin-resistant S. aureus ATCC 43300; settings: S. aureus 43300 (methicillin-resistant); lowest concentration preventing more than 99.9% growth; 37 °C, 5 h; representative of three trials
Procedure: as §1, with “In” for “Minimal bactericidal concentrations (MBCs) were measured using the method which has been adopted from National Committee for Clinical Laboratory Standards (NCCLS), with modifications. In”

S. epidermidis ATCC12228 = assay type: cell-based, Staphylococcus epidermidis; settings: ATCC12228, 5 h
Procedure: In short, 50 μL peptide solutions were pipetted into microtiter plates at various concentrations ranging from 1 to 128 μM. Freshly grown bacteria were added to the each well in a density of 0.5–1 × 10^6 CFUmL^−1. Microtiter plated was incubated at 37 °C for 5 h. Fifty microliters of each incubation mixture was further serially diluted (up to 10^−3 of the initial bacterial concentration), transferred on agar plates and incubated overnight. On the following day, the number of colonies was evaluated and the initial CFU/well retrospectively calculated. The minimum bactericidal concentrations (μM) were determined as the lowest concentration of the peptides that prevented more than 99.9% bacteria growth. Each test was reproduced at least 3 times using 6 replicates.

[3] = tested on: 3 gram-negative strains tested; test: Geometric mean of MBCs and therapeutic index, gram-negative strains; assay type: cell-based; settings: MHC/GM for 3 gram-negative strains; >128 counted as 256 μM
Procedure: as §1, with “In” for “Minimal bactericidal concentrations (MBCs) were measured using the method which has been adopted from National Committee for Clinical Laboratory Standards (NCCLS), with modifications. In”
(§2) The therapeutic index (TI) is calculated by the ration of the minimum hemolytic concentration (MHC) to the geometric mean of the MBC (GM) to evaluate cell selectivity of peptides.

[4] = tested on: 3 gram-positive strains tested; settings: MHC/GM for 3 gram-positive strains; >128 counted as 256 μM
Procedure: as §1, with “In” for “Minimal bactericidal concentrations (MBCs) were measured using the method which has been adopted from National Committee for Clinical Laboratory Standards (NCCLS), with modifications. In”
as §2

[5] = tested on: all of the 6 strains tested; test: Geometric mean of MBCs and therapeutic index, all strains; assay type: cell-based; settings: MHC/GM for all 6 strains; >128 counted as 256 μM
Procedure: as §1, with “In” for “Minimal bactericidal concentrations (MBCs) were measured using the method which has been adopted from National Committee for Clinical Laboratory Standards (NCCLS), with modifications. In”
as §2

[6] = tested on: human red blood cells (hRBCs); test: Hemolytic activity; settings: concentration causing 5% hemolysis of human red blood cells; about 1% hRBC in PBS, 37 °C, 1 h, OD 576 nm
Procedure: The hemolytic activity of each peptide was evaluated using a modified method, as described previously[21][22]. […] Then, the collected hRBCs were washed three times with PBS (pH 7.2), centrifuged at 1000 × g for 5 min, and resuspended in PBS (final concentration, approximately 1%). Next, 50 μL of the hRBC suspension was placed into a 96-well cell culture plate with 50 μL of test peptide solution in PBS at different concentrations, and the mixture was incubated at 37 °C for 1 h. After incubation, the plate was centrifuged at 1000 × g for 5 min, the supernatant was transferred to a new 96-well cell culture plate, and the release of hemoglobin was measured by monitoring optical density (OD) at 576 nm. Untreated hRBCs suspension was used as a negative control, and the hRBCs treated with 0.1% Triton X-100 were employed as positive controls. Each test was reproduced at least 3 times using 6 replicates. Percent hemolysis was calculated using the following equation:

E. coli ATCC 25922 [7] = assay type: cell-based, Escherichia coli; settings: ATCC 25922, 5 h; remark: listed apart in the source
Procedure: as §1, with “In short, 50 μL peptide solutions were pipetted into microtiter plates at various concentrations ranging from 1 to 128 μM.” left out, “growth. […] The salt sensitivity of the peptides was measured using a modified method, as described previously. […] The subsequent steps were consistent with the MBCs determination method.” for “growth.”

S. aureus ATCC 29213 = assay type: cell-based, Staphylococcus aureus; settings: ATCC 29213, 5 h
Procedure: as §1, with “In short, 50 μL peptide solutions were pipetted into microtiter plates at various concentrations ranging from 1 to 128 μM.” left out, “growth. […] The salt sensitivity of the peptides was measured using a modified method, as described previously. […] The subsequent steps were consistent with the MBCs determination method.” for “growth.”

E. coli ATCC 25922 [8] = assay type: cell-based, Escherichia coli; settings: ATCC 25922, 24 h
Procedure: The checkerboard titration method is commonly used to evaluate the synergy of different antibacterial combinations. First, 2-fold serial dilutions of the antibiotics and antimicrobial peptides were prepared. Subsequently, 50 μL each of different concentrations of antibiotics and of antimicrobial peptides was mixed and added into 100 μL of bacterial solution (containing approximately 0.5–1 × 10^6 CFU mL^−1) in each well of a 96-well plate. The plates were then incubated at 37 °C for 24 h. The subsequent steps were consistent with the MBCs determination method. The fractional inhibitory concentration (FIC) index (FICI) was calculated as follows: An FICI < 0.5 is considered to indicate synergy; 0.5 < FICI < 1.0 is considered additive; 1.0 < FICI < 4.0 is considered indifferent; and an FICI > 4.0 is considered antagonism.

| Substance | Minimum bactericidal concentration (E. coli ATCC 25922 [1]) | Minimum bactericidal concentration (E. coli UB1005) | Minimum bactericidal concentration (S. typhimurium ATCC14028) | Minimum bactericidal concentration (S. aureus ATCC29213) | Minimum bactericidal concentration [2] | Minimum bactericidal concentration (S. epidermidis ATCC12228) | TI (therapeutic index), gram-negative [3] | TI (therapeutic index), gram-positive [4] | TI (therapeutic index), all strains [5] | MHC (minimum hemolytic concentration) [6] | MBC with CaCl2 (E. coli ATCC 25922 [7]) | MBC with FeCl3 (E. coli ATCC 25922 [7]) | MBC with KCl (E. coli ATCC 25922 [7]) | MBC with MgCl2 (E. coli ATCC 25922 [7]) | MBC with NH4Cl (E. coli ATCC 25922 [7]) | MBC with NaCl (E. coli ATCC 25922 [7]) | MBC with ZnCl2 (E. coli ATCC 25922 [7]) | MBC, control (E. coli ATCC 25922 [7]) | MBC with CaCl2 (S. aureus ATCC 29213) | MBC with FeCl3 (S. aureus ATCC 29213) | also measured |
| --- | --- | --- | --- | --- | --- | --- | --- | --- | --- | --- | --- | --- | --- | --- | --- | --- | --- | --- | --- | --- | --- |
| AKLWALKAKLWALKAKLWALK-NH2 [AA3s1] | 2 µM | 4 µM | 16 µM | 16 µM | 16 µM | 64 µM | 3.17 | 0.63 | 1.41 | 16 µM | – | – | – | – | – | – | – | – | – | – | – |
| AKLWLKAAKLWLKA-NH2 [AA2] | 1 µM | 8 µM | 16 µM | 16 µM | 16 µM | 32 µM | 25.40 | 6.35 | 12.70 | 128 µM | 4 µM | 1 µM | 1 µM | 2 µM | 1 µM | 2 µM | 1 µM | 1 µM | 64 µM | 16 µM | MBC with KCl (S. aureus ATCC 29213): 16 µM; MBC with MgCl2 (S. aureus ATCC 29213): 32 µM; MBC with NH4Cl (S. aureus ATCC 29213): 8 µM; MBC with NaCl (S. aureus ATCC 29213): 128 µM; MBC with ZnCl2 (S. aureus ATCC 29213): 8 µM; MBC, control (S. aureus ATCC 29213): 16 µM; FIC index in combination with Ceftazidime (E. coli ATCC 25922 [8]): 1; FIC index in combination with Chloramphenicol (E. coli ATCC 25922 [8]): 1; FIC index in combination with Ciprofloxacin (E. coli ATCC 25922 [8]): 0.75; FIC index in combination with Streptomycin (E. coli ATCC 25922 [8]): 0.5 |
| AKLWLKAAKLWLKAAKLWLKA-NH2 [AA3] | 2 µM | 2 µM | 4 µM | 4 µM | 4 µM | 4 µM | 3.17 | 2 | 2.52 | 8 µM | 2 µM | 2 µM | 1 µM | 2 µM | 2 µM | 2 µM | 1 µM | 2 µM | 4 µM | 4 µM | MBC with KCl (S. aureus ATCC 29213): 4 µM; MBC with MgCl2 (S. aureus ATCC 29213): 4 µM; MBC with NH4Cl (S. aureus ATCC 29213): 4 µM; MBC with NaCl (S. aureus ATCC 29213): 4 µM; MBC with ZnCl2 (S. aureus ATCC 29213): 4 µM; MBC, control (S. aureus ATCC 29213): 4 µM; FIC index in combination with Ceftazidime (E. coli ATCC 25922 [8]): 1; FIC index in combination with Chloramphenicol (E. coli ATCC 25922 [8]): 1; FIC index in combination with Ciprofloxacin (E. coli ATCC 25922 [8]): 2 |
| AKLWLKAAKLWLKAAKLWLKAAKLWLKA-NH2 [AA4] | 8 µM | 32 µM | 128 µM | 32 µM | 32 µM | 32 µM | 0.03 | 0.03 | 0.03 | 1 µM | 8 µM | 8 µM | 4 µM | 8 µM | 8 µM | 64 µM | 4 µM | 8 µM | 128 µM | 32 µM | MBC with KCl (S. aureus ATCC 29213): 32 µM; MBC with MgCl2 (S. aureus ATCC 29213): 32 µM; MBC with NH4Cl (S. aureus ATCC 29213): 32 µM; MBC with NaCl (S. aureus ATCC 29213): 32 µM; MBC with ZnCl2 (S. aureus ATCC 29213): 32 µM; MBC, control (S. aureus ATCC 29213): 32 µM |
| GKLWLKGGKLWLKG-NH2 [GG2] | 4 µM | 32 µM | 64 µM | 128 µM | 64 µM | 128 µM | 12.70 | 2.52 | 5.66 | >128 µM | 16 µM | 4 µM | 4 µM | 16 µM | 4 µM | >128 µM | 4 µM | 4 µM | >128 µM | 128 µM | MBC with KCl (S. aureus ATCC 29213): 128 µM; MBC with MgCl2 (S. aureus ATCC 29213): >128 µM; MBC with NH4Cl (S. aureus ATCC 29213): 128 µM; MBC with NaCl (S. aureus ATCC 29213): >128 µM; MBC with ZnCl2 (S. aureus ATCC 29213): 128 µM; MBC, control (S. aureus ATCC 29213): 128 µM; FIC index in combination with Ceftazidime (E. coli ATCC 25922 [8]): 2; FIC index in combination with Chloramphenicol (E. coli ATCC 25922 [8]): 1; FIC index in combination with Ciprofloxacin (E. coli ATCC 25922 [8]): 2; FIC index in combination with Streptomycin (E. coli ATCC 25922 [8]): 1 |
| GKLWLKGGKLWLKGGKLWLKGGKLWLKG-NH2 [GG4] | 4 µM | 8 µM | 32 µM | 128 µM | 128 µM | >128 µM | 1.59 | 0.10 | 0.40 | 16 µM | 4 µM | 4 µM | 4 µM | 4 µM | 4 µM | 4 µM | 4 µM | 4 µM | – | – | – |
| GLWKGKLGLWKGKLGLWKGKL-NH2 [GG3s2] | 4 µM | 4 µM | 32 µM | 128 µM | 64 µM | 64 µM | 32 | 3.17 | 10.08 | >128 µM | – | – | – | – | – | – | – | – | – | – | – |
